Measured values from patent US8097625B2, “Combination of sedative and a neurotransmitter modulator, and methods for improving sleep quality and treating depression” (priority 2003, dated 2012).

What was measured:
[1] = system: subjects with insomnia related to major depressive disorder; assay: DREAMDD clinical study: fluoxetine titration (20 mg to 40 mg at Visit 7); type: in vivo, human; details: for Subjects on Fluoxetine Hydrochloride 20 mg / Subjects on Fluoxetine Hydrochloride 40 mg: eszopiclone 3 mg group, ITT
Method: In addition, subjects were randomized at Visit 3 (end of baseline) to treatment with one of the following nightly (at bedtime): eszopiclone (3 mg) or matching placebo.
(§1) Sleep, Depression, and Productivity Questionnaires and Clinical Global Impression: The following questionnaires were administered as listed below. • Epworth Sleepiness Scale (ESS): ESS was completed by the subject at Visits 2-10. The ESS is a subjective assessment of the likelihood of falling asleep in various situations. • Insomnia Severity Index (ISI): ISI was completed by the subject at Visits 3, 5, 7, 9 and 10. The ISI is a subjective assessment of sleep quality, restedness/refreshness upon arising, daytime fatigue, attention/concentration and relationship and mood disturbances. • Work Limitations Questionnaire (WLQ): WLQ was completed by the subject at Visits 3, 5, 7, 9, and 10. The WLQ is a validated self-report instrument for measuring the degree to which chronic health problems interfere with ability to perform job roles, addressing the content of the job through a demand-level methodology. • Hamilton Depression-17: HAM-D-17 was administered via IVRS at screening and rated by a trained clinician at Visits 3, 7, 9, and 10. • SF-36: SF-36 was completed by the subject at Visits 3, 7, 9 and 10. The SF-36 represents multiple operational definitions of health, including function and dysfunction, distress and well-being, objective reports and subjective ratings, and both favorable and unfavorable self-evaluations of general health status. • Clinical Global Impression (CGI): CGI was completed by the investigator at Visits 3-10 The CGI is the investigator's subjective assessment of improvement in the subject's depressive symptoms. The response on the CGI at Visit 7 (Week 4 of double-blind treatment) was used by the investigator to assess the need for increasing the dose of fluoxetine to 40 mg daily (in the morning). […] Study Conduct
Visit 7 occurred 7 (±2) days after Visit 6. […] Double-blind dosing (at bedtime) continued nightly through Visit 9. • 1. Collected and reviewed the MEC. Recorded all changes in concurrent medications, including OTC and health and dietary supplements, and AEs that may have occurred between Visit 6 and Visit 7. • 2. […] Subjects completed the ESS, 1SI, WLQ, and SF-36 questionnaires prior to performing any other study related procedures. The questionnaires were reviewed for completeness by study staff. Any items left blank were returned to the subject for completion. • 4. A trained clinician administered the Hamilton-D-17 to assess depression symptoms. • 5. The investigator completed the Clinical Global Impression. […] If an increased dose of fluoxetine was required, the investigator dispensed the double-blind blister pack containing the 40 mg dose of fluoxetine. • 6. Dispensed the appropriate Visit 7 double-blind blister pack. […] Note: only one Visit 7 blister card was dispensed. • 7. Obtained vital signs (seated) and weight. • 8. Obtained blood and urine samples for clinical laboratory assessments including urinalysis, urine drug and alcohol screen, and a serum pregnancy tests on all women. • 9. Reviewed use of IVRS and the schedule for calling. Subjects call the IVRS the morning following this visit and on the morning of Visit 8 (prior to the visit). • 10. Issued MEC and instruct the subject on its use. • 11. Scheduled Visit 8 in 14 (±2) days. Visit 8 (Double-Blind Treatment Week 6)

[2] = system: subjects with insomnia related to major depressive disorder; assay: DREAMDD clinical study: Clinical Global Impression (Severity 1=normal to 7=most extremely depressed; Global Improvement 1=very much improved to 7=very much worse); type: in vivo, human; details: for CGI - Global Improvement, Mean (SD) / CGI - Global Improvement, Median / CGI - Severity, Change from Baseline, Mean (SD) / CGI - Severity, Change from Baseline, Median / CGI - Severity, Observed Value, Mean (SD) / CGI - Severity, Observed Value, Median / CGI - Severity, Change from Baseline, Least Squares Mean (SE): ITT; for CGI - Severity, Change from Baseline, Least Squares Mean (SE): ANCOVA
Method: Depression Response to Eszopiclone in Adults With Major Depressive Disorder (DREAMDD): A Randomized, Double-Blind, Placebo-Controlled, Parallel-Group, 8-Week, Safety and Efficacy Study of Eszopiclone 3 mg Compared to Placebo in Subjects with Insomnia Related to Major Depressive Disorder
This study was a double-blind randomized, placebo-controlled, parallel group study. […] All subjects must satisfy DSM-IV criteria for insomnia related to major depression.
as §1
Clinical Global Impression: In this test, a medical professional rates the patient's depression and whether the improvement in depression is due to the drug treatment. Question 1) Severity: Considering your total clinical experience with this particular population, how depressed is the patient at this time? Respond by indicating 1=normal, not at all depressed, 2=borderline depressed, 3=mildly depressed, 4=moderately depressed, 5=markedly depressed, 6=severely depressed, or 7=among the most extremely depressed patients. Question 2) Global Improvement: Rate total improvement whether or not, in your judgment, it is due entirely to drug treatment. Compared to his/her condition at Visit 3, how much has he/she changed?
Methods: Patients who met DSM-IV criteria for new MDD and insomnia received fluoxetine 20 mg QAM plus either eszopiclone 3 mg (n=275) or placebo (n=270) nightly for 8 weeks. Efficacy was assessed using HAMD17 and Clinical Global Impression Improvement (CGI-I) and Severity (CGI-S). Response=50% decrease from baseline HAMD17; remission=HAMD17≦7.

[3] = Visit 4 (Week 1), 3 mg nightly + fluoxetine
[4] = Visit 5 (Week 2), 3 mg nightly + fluoxetine
[5] = Visit 6 (Week 3), 3 mg nightly + fluoxetine
[6] = Visit 7 (Week 4), 3 mg nightly + fluoxetine
[7] = Visit 8 (Week 6), 3 mg nightly + fluoxetine
[8] = Visit 9 (Week 8), 3 mg nightly + fluoxetine
[9] = Visit 10 (EOT; Week 10, after single-blind wash-out), eszopiclone 3 mg group

CN1CCN(C(=O)OC2c3nccnc3C(=O)N2c2ccc(Cl)cn2)CC1 (single isomer, unassigned; (+)) [Eszopiclone, (+) 6-(5-chloro-2-pyridinyl)-6,7-dihydro-7-oxo-5H-pyrrolo[3,4b]pyrazin-5-yl 4-methylpiperazine-1-carboxylate]
Subjects on Fluoxetine Hydrochloride 20 mg ([1]; Visit 7 (Week 4)): 125 (55.8%) n (%)
Subjects on Fluoxetine Hydrochloride 40 mg ([1]; Visit 7 (Week 4)): 99 (44.2%) n (%)
Subjects on Fluoxetine Hydrochloride 20 mg ([1]; Visit 8 (Week 6)): 115 (54.0%) n (%)
Subjects on Fluoxetine Hydrochloride 40 mg ([1]; Visit 8 (Week 6)): 98 (46.0%) n (%)
Subjects on Fluoxetine Hydrochloride 20 mg ([1]; Visit 9 (Week 8)): 103 (52.8%) n (%)
Subjects on Fluoxetine Hydrochloride 40 mg ([1]; Visit 9 (Week 8)): 92 (47.2%) n (%)
antidepressant dose escalation to higher dose of fluoxetine ([1]; co-administration with fluoxetine vs placebo): less patients in this study required antidepressant dose escalation
Fluoxetine dose increases ([1]; p<0.05 vs placebo, 3 mg nightly + fluoxetine): 44%
CGI - Global Improvement, Mean (SD) [2, 3]: 3.3 (0.8)
CGI - Global Improvement, Median [2, 3]: 3.0
CGI - Severity, Change from Baseline, Mean (SD) [2, 3]: −0.3 (0.7)
CGI - Severity, Change from Baseline, Median [2, 3]: 0.0
CGI - Severity, Observed Value, Mean (SD) [2, 3]: 4.0 (0.7)
CGI - Severity, Observed Value, Median [2, 3]: 4.0
CGI - Severity, Change from Baseline, Least Squares Mean (SE) [2, 3]: −0.3 (0.0)
CGI - Global Improvement, Mean (SD) [2, 4]: 2.9 (0.8)
CGI - Global Improvement, Median [2, 4]: 3.0
CGI - Severity, Change from Baseline, Mean (SD) [2, 4]: −0.8 (0.9)
CGI - Severity, Change from Baseline, Median [2, 4]: −1.0
CGI - Severity, Observed Value, Mean (SD) [2, 4]: 3.6 (0.9)
CGI - Severity, Observed Value, Median [2, 4]: 4.0
CGI - Severity, Change from Baseline, Least Squares Mean (SE) [2, 4]: −0.8 (0.1)
CGI - Global Improvement, Mean (SD) [2, 5]: 2.6 (0.9)
CGI - Global Improvement, Median [2, 5]: 3.0
CGI - Severity, Change from Baseline, Mean (SD) [2, 5]: −1.1 (1.0)
CGI - Severity, Change from Baseline, Median [2, 5]: −1.0
CGI - Severity, Observed Value, Mean (SD) [2, 5]: 3.2 (1.0)
CGI - Severity, Observed Value, Median [2, 5]: 3.0
CGI - Severity, Change from Baseline, Least Squares Mean (SE) [2, 5]: −1.1 (0.1)
CGI - Global Improvement, Mean (SD) [2, 6]: 2.4 (1.0)
CGI - Global Improvement, Median [2, 6]: 2.0
CGI - Severity, Change from Baseline, Mean (SD) [2, 6]: −1.4 (1.1)
CGI - Severity, Change from Baseline, Median [2, 6]: −1.0
CGI - Severity, Observed Value, Mean (SD) [2, 6]: 3.0 (1.1)
CGI - Severity, Observed Value, Median [2, 6]: 3.0
CGI - Severity, Change from Baseline, Least Squares Mean (SE) [2, 6]: −1.3 (0.1)
CGI - Global Improvement, Mean (SD) [2, 7]: 1.9 (0.9)
CGI - Global Improvement, Median [2, 7]: 2.0
CGI - Severity, Change from Baseline, Mean (SD) [2, 7]: −1.8 (1.2)
CGI - Severity, Change from Baseline, Median [2, 7]: −2.0
CGI - Severity, Observed Value, Mean (SD) [2, 7]: 2.5 (1.0)
CGI - Severity, Observed Value, Median [2, 7]: 2.5
CGI - Severity, Change from Baseline, Least Squares Mean (SE) [2, 7]: −1.8 (0.1)
CGI - Global Improvement, Mean (SD) [2, 8]: 1.9 (1.0)
CGI - Global Improvement, Median [2, 8]: 2.0
CGI - Severity, Change from Baseline, Mean (SD) [2, 8]: −1.9 (1.3)
CGI - Severity, Change from Baseline, Median [2, 8]: −2.0
CGI - Severity, Observed Value, Mean (SD) [2, 8]: 2.4 (1.2)
CGI - Severity, Observed Value, Median [2, 8]: 2.0
CGI - Severity, Change from Baseline, Least Squares Mean (SE) [2, 8]: −1.8 (0.1)
CGI - Severity, Change from Baseline, Least Squares Mean (SE) [2, 9]: −2.2 (0.1)
CGI - Global Improvement, Mean (SD) [2, 9]: 1.6 (0.9)
CGI - Global Improvement, Median [2, 9]: 1.0
CGI - Severity, Change from Baseline, Mean (SD) [2, 9]: −2.3 (1.2)
CGI - Severity, Change from Baseline, Median [2, 9]: −2.0
CGI - Severity, Observed Value, Mean (SD) [2, 9]: 2.0 (1.0)
CGI - Severity, Observed Value, Median [2, 9]: 2.0
CGI-I and CGI-S scores versus placebo ([2]; p<0.05, 3 mg nightly + fluoxetine): significantly greater
